Measured values as given in publication PMC8954350, “Non-Canonical Cannabinoid Receptors with Distinct Binding and Signaling Properties in Prostate and Other Cancer Cell Types Mediate Cell Death” (International Journal of Molecular Sciences, 2022).

Assays:
[1] = tested on: CBRs expressed in PC-3 cells; test: [^3H]CP-55,940 competitive binding screen, PC-3 membranes; design: species or system human; conditions: 1 μM ligand, 0.2 nM radioligand
Protocol: (§1) The assay was conducted as previously detailed. […] All binding reactions were conducted in triplicate, in a final volume of 1 mL, and, following mixing, were incubated for 20 min in a 37 °C water bath to achieve equilibrium. After incubation, reactions were terminated by rapid vacuum filtration through Whatman GF/B glass fiber filters (Brandel; Gaithersburg, MD, USA), followed by three washes of 4 mls of ice-cold filtration buffer (50 mM Tris, pH 7.4, and 0.05% bovine serum albumin). Samples were punched out from filter papers into scintillation vials, to which 4 mls of ScintiverseTM-BDR cocktail scintillation fluid (Fisher Scientific; Hampton, NH, USA) was added. Filters were incubated at room temperature for 24 h in scintillation fluid, vortexed, and radioactivity (measured as DPMs) was quantified via a liquid scintillation spectrophotometer (Tri Carb 2100 TR Liquid Scintillation Analyzer, Packard Instruments, Meriden, CT, USA).

[2] = tested on: CBRs expressed in HeLa cells; test: [^3H]WIN-55,212-2 competitive binding screen, HeLa membranes; design: species or system human; conditions: 1 μM ligand, 1 nM radioligand
Protocol: as §1

[3] = tested on: canonical human CB1Rs (CHO-hCB1); design: method as in PMID 34592231; conditions: 1 μM ligand, 0.2 nM radioligand, CHO-hCB1 membranes; cited from earlier work
[4] = tested on: canonical human CB1Rs (CHO-hCB1); design: method as in PMID 34592231; conditions: 1 μM ligand, 1 nM radioligand, CHO-hCB1 membranes; cited from earlier work
human CB1 receptors = biological target: T1, human CB1 receptors (Homo sapiens, UniProt P21554); test: Competition binding, CHO-hCB1 membranes; conditions: membranes from CHO cells stably expressing human CB1
T1 construct: host or cells: CHO
T1 sequence (P21554 whole entry): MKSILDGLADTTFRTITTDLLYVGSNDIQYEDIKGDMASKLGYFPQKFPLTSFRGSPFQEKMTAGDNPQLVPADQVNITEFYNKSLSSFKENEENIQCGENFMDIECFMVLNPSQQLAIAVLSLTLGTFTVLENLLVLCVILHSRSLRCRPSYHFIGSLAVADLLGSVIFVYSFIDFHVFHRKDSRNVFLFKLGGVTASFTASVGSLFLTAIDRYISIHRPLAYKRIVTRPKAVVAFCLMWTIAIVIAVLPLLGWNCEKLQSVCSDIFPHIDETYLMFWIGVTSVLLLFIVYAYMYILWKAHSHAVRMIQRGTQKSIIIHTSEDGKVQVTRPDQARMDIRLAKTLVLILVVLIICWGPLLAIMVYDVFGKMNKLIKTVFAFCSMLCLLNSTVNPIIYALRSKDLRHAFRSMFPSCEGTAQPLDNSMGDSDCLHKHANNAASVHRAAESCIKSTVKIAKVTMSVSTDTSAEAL
Protocol: The assay was performed as previously detailed. […] All binding reactions were conducted in triplicate, in a final volume of 1 mL, and, following mixing, were incubated for 20 min in a 37 °C water bath to achieve equilibrium. After incubation, reactions were terminated by rapid vacuum filtration and processed for radioactivity, as detailed in Section 4.5.1.
Curve-fitting and all statistical analyses were performed using GraphPad Prism® v8.0g (GraphPad Software, Inc.; San Diego, CA, USA). […] For CBR screening studies, a one-sample t-test was performed to determine differences from 100% (e.g., to quantify compounds producing displacement), followed by a one-way ANOVA and Tukey’s post hoc tests to compare displacement produced by all drugs. […] To compare specific CBR affinity (Ki) between ligands, non-linear regression analysis was employed to determine experimental IC50 values from competition receptor binding assays, which were then converted to Ki values using the Cheng–Prusoff equation [35]. […] For LDH release, ATP-dependent cell viability and JC-1 staining assays, drug effects were first analyzed by a one-sample t-test to determine differences from 0 or 100% (vehicle), followed by a one-way ANOVA and Dunnett’s post hoc test to compare all means. […]

DU-145 cells = test: ATP-dependent cell viability, DU-145 cells; type: cell-based, human; conditions: 24 h
Protocol: Adenosine 5′-triphosphate (ATP) levels were quantified as a measure of DU-145 cell viability in response to cannabinoid treatement using an ATP-luciferase-based bioluminescence assay kit (CellTiter-Glo®, Sigma, MO, USA) and BioTek microplate reader (Winooski, VT, USA). DU-145 cells were seeded at a density of 8 × 10^3 cells/well in a 96-well plate and incubated for 24 h at 37 °C with 5% CO2. The next day, cells were treated with either vehicle or experimental drugs (10 or 50 μM) and incubated for another 24 h at 37 °C with 5% CO2. ATP levels were assessed following incubation by interpolation from an ATP standard curve according to the manufacturer’s protocol, as described previously.

Structure (SMILES)	displacement of [^3H]CP-55,940 [1]	displacement of [^3H]WIN-55,212-2 (Figure 1B) [2]	displacement of [^3H]CP-55,940 [3]	displacement of [^3H]WIN-55,212-2 (Figure 1B) [4]	Ki (human CB1 receptors)	reduction in ATP-dependent cell viability (ATP levels) (DU-145 cells; 50 μM)	concentration-dependent effect on ATP-dependent viability (DU-145 cells; 10–50 μM)
Cc1c(C(=O)c2cccc3ccccc23)c2cccc3c2n1[C@H](CN1CCOCC1)CO3 [WIN-55,212-2]	neither the non-selective CBR ligand CP-55,940 nor WIN-55,212-2 produced significant displacement	significantly displaced	produced near or complete displacement	produced near or complete displacement			
COc1ccc2c(c1)c(CCN1CCOCC1)c(C)n2C(=O)c1cccc(Cl)c1Cl [GW-405833]					0.747 µM	68.8 ± 4.95%	only produced ATP-dependent reductions in cell viability at the highest 50 μM concentration
